Target: T1, Alpha-1A adrenergic receptor (Homo sapiens, UniProt P35348)
T1 sequence (P35348 whole entry): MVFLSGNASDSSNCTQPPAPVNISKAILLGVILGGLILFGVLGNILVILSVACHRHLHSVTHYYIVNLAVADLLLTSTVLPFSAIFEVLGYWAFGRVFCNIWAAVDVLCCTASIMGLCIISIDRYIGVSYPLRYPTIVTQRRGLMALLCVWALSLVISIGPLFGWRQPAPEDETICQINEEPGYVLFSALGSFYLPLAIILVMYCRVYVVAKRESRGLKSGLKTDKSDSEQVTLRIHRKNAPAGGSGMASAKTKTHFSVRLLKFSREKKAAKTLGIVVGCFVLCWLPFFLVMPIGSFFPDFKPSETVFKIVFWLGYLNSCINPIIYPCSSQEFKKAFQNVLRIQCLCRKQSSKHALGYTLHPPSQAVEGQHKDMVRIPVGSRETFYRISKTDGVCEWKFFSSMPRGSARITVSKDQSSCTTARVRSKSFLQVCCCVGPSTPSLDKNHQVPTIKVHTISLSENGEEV
Note: assay procedure not described here.

- AC50: > 10 µM
SMILES: Cn1c(=O)cc(N2CCC[C@@H](N)C2)n(Cc2ccccc2C#N)c1=O [ALOGLIPTIN]

— ChEMBL document CHEMBL5291721, “A preclinical secondary pharmacology resource illuminates target-adverse drug reaction associations of marketed drugs” (Nat Commun, 2023)
